Data from the supplement of paper PMC13207355.

Columns and labels:
Settings in all cases: exposure time: 72 h
[1] = test system: E13 (patient-derived glioblastoma stem cells of classical subtype); experiment: phenotypic distance (Euclidean, principal components) from DMSO controls (arbitrary units); higher = stronger morphological change
[2] = test system: E34 (patient-derived glioblastoma stem cells of proneural subtype); experiment: as above
[3] = test system: E31 (patient-derived glioblastoma stem cells of proneural subtype); experiment: as above
[4] = test system: FT3469 (normal neural stem cell line); experiment: as above
[5] = test system: E28 (patient-derived glioblastoma stem cells of classical subtype); experiment: as above
[6] = test system: E57 (patient-derived glioblastoma stem cells of mesenchymal subtype); experiment: as above
[7] = test system: E21 (patient-derived glioblastoma stem cells of mesenchymal subtype); experiment: as above
[8] = test system: E13; experiment: surviving fraction (nuclei count normalised to DMSO); higher = more cells surviving (less toxic)
[9] = test system: E34; experiment: as above
[10] = test system: E31; experiment: as above
[11] = test system: FT3469; experiment: as above
[12] = test system: E28; experiment: as above
[13] = test system: E57; experiment: as above
[14] = test system: E21; experiment: as above
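Wherever phenotypic distance (Euclidean, principal components) from DMSO controls is given: cell Painting imaging in 384-well plates, CellProfiler features reduced to at least 20 principal components, Euclidean distance versus same-plate DMSO vehicle wells (0.1% v/v), median over six images per well.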
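Wherever surviving fraction (nuclei count normalised to DMSO) is given: nuclei counted by high-content imaging of Hoechst-stained cells in laminin-coated 384-well plates, relative to 0.1% DMSO vehicle wells, with staurosporine as cell-death control.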

COc1ccc([C@@H]2CC(=O)c3c(O)cc(O[C@@H]4O[C@H](CO[C@@H]5O[C@@H](C)[C@H](O)[C@@H](O)[C@H]5O)[C@@H](O)[C@H](O)[C@H]4O)cc3O2)cc1O [Hesperidin]
Settings	phenotypic distance	surviving fraction
[1], 4.1 nM	0.619	–
[1], 12.3 nM	0.532	–
[1], 37 nM	0.507	–
[1], 111.1 nM	0.462	–
[1], 333.3 nM	0.682	–
[1], 1000 nM	0.572	–
[1], 3000 nM	0.438	–
[2], 4.1 nM	0.666	–
[2], 12.3 nM	0.79	–
[2], 37 nM	0.595	–
[2], 111.1 nM	1.02	–
[2], 333.3 nM	0.595	–
[2], 1000 nM	0.635	–
[2], 3000 nM	0.793	–
[3], 4.1 nM	0.45	–
[3], 12.3 nM	0.684	–
[3], 37 nM	0.77	–
[3], 111.1 nM	0.32	–
[3], 333.3 nM	0.513	–
[3], 1000 nM	0.709	–
[3], 3000 nM	0.756	–
[4], 4.1 nM	0.821	–
[4], 12.3 nM	1.41	–
[4], 37 nM	0.766	–
[4], 111.1 nM	1.05	–
[4], 333.3 nM	0.567	–
[4], 1000 nM	0.989	–
[4], 3000 nM	0.744	–
[5], 4.1 nM	0.47	–
[5], 12.3 nM	0.575	–
[5], 37 nM	0.783	–
[5], 111.1 nM	0.619	–
[5], 333.3 nM	0.437	–
[5], 1000 nM	0.666	–
[5], 3000 nM	1.36	–
[6], 4.1 nM	0.43	–
[6], 12.3 nM	0.735	–
[6], 37 nM	0.539	–
[6], 111.1 nM	0.532	–
[6], 333.3 nM	0.511	–
[6], 1000 nM	0.762	–
[6], 3000 nM	0.602	–
[7], 4.1 nM	0.723	–
[7], 12.3 nM	1.01	–
[7], 37 nM	0.467	–
[7], 111.1 nM	0.825	–
[7], 333.3 nM	0.905	–
[7], 1000 nM	0.753	–
[7], 3000 nM	1.01	–
[8], 4.1 nM	–	0.863
[8], 12.3 nM	–	0.95
[8], 37 nM	–	0.946
[8], 111.1 nM	–	0.963
[8], 333.3 nM	–	0.941
[8], 1000 nM	–	1.04
[8], 3000 nM	–	0.96
[9], 4.1 nM	–	1.02
[9], 12.3 nM	–	0.86
[9], 37 nM	–	0.979
[9], 111.1 nM	–	1.21
[9], 333.3 nM	–	1.01
[9], 1000 nM	–	0.93
[9], 3000 nM	–	1.06
[10], 4.1 nM	–	0.929
[10], 12.3 nM	–	1.11
[10], 37 nM	–	1.1
[10], 111.1 nM	–	0.966
[10], 333.3 nM	–	1.09
[10], 1000 nM	–	1.04
[10], 3000 nM	–	0.936
[11], 4.1 nM	–	1.13
[11], 12.3 nM	–	1.1
[11], 37 nM	–	1.05
[11], 111.1 nM	–	1.15
[11], 333.3 nM	–	0.937
[11], 1000 nM	–	1.01
[11], 3000 nM	–	0.981
[12], 4.1 nM	–	1.02
[12], 12.3 nM	–	1.13
[12], 37 nM	–	1.02
[12], 111.1 nM	–	0.97
[12], 333.3 nM	–	1.02
[12], 1000 nM	–	1.13
[12], 3000 nM	–	0.967
[13], 4.1 nM	–	1
[13], 12.3 nM	–	1.12
[13], 37 nM	–	0.932
[13], 111.1 nM	–	0.961
[13], 333.3 nM	–	0.943
[13], 1000 nM	–	0.925
[13], 3000 nM	–	0.915
[14], 4.1 nM	–	0.916
[14], 12.3 nM	–	0.952
[14], 37 nM	–	0.918
[14], 111.1 nM	–	1.01
[14], 333.3 nM	–	0.971
[14], 1000 nM	–	1.02
[14], 3000 nM	–	0.969
